How the values were obtained:
USP7 = target: T1, USP7 (Homo sapiens, UniProt Q93009, C315A); assay: Inhibition of USP7 by Fluorescence Intensity (FLINT) readings, Ubiquitin-Rhodamine-110 substrate; type: biochemical; details: 0.25 nM His-His-USP7 (aa208-560), 60 minutes at 30° C. preincubation; Ki determined from IC50 according to Cer et al.
T1 construct: 0.25 nM His-His-USP7 (aa208-560, |C315A|) was incubated with compound; His-His (N)
Outline: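 His-tagged USP7 (aa208-560, C315A), 0.25 nM, preincubated with compound 60 min at 30 °C in 100 mM Bicine pH 8.0, 0.01% Triton X-100, 1 mM TCEP, 10% DMSO. Ubiquitin-Rhodamine-110 (50 nM or 4 μM) added; kinetic fluorescence (Ex 485/Em 535 nm) over 21 min; IC50 from 11-point curves, Ki derived from IC50.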

[1] = system: Z138 mantle cell lymphoma tumour cell lines; assay: In vitro cytotoxicity, MTT assay; type: cell-based; details: Homo sapiens, Z-138; Z138 cells, exposed to the test compounds for 96 hours
Outline: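 Z138 cells exposed to compounds for 96 hours, then MTT added for 4 hours. Formazan absorbance at 540 nm serves as the measure of viable cell number.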

T1 sequence (Q93009 208-560 C315A): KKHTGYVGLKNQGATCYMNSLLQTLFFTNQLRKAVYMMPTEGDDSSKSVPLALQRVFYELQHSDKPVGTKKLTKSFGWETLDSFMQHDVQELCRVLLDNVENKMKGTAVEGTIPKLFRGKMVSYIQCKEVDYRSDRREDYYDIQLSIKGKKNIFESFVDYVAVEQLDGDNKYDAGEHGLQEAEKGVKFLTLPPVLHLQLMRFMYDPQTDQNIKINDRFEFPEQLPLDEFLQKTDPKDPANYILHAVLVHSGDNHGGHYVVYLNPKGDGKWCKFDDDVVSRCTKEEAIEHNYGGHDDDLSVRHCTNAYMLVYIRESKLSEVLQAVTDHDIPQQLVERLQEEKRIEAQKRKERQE

Q: With `Nc1c(Oc2ccc(F)cc2)ncn(CC2(O)CCN(C(=O)[C@@H]3CCN(C(=O)c4cncc(C(F)(F)F)c4)C[C@H]3c3ccccc3)CC2)c1=O` [Example 122, 5-amino-6-(4-fluorophenoxy)-3-[(4-hydroxy-1-{(3R,4R)-3-phenyl-1-[5-(trifluoromethyl)pyridine-3-carbonyl]piperidine-4-carbonyl}piperidin-4-yl)methyl]pyrimidin-4(3H)-one] as the compound, how does the Ki (USP7) read?
A: 13.6 nM

Q: And the IC50 [1]?
A: 23 nM

Q: Which results are given for `Nc1c(Oc2ccc(F)cc2)ncn(CC2(O)CCN(C(=O)[C@@H]3CCN(C4(c5ccccc5)COC4)C[C@H]3c3ccccc3)CC2)c1=O` [Example 108, 5-amino-6-(4-fluorophenoxy)-3-[[4-hydroxy-1-((3R,4R)-3-phenyl-1-(3-phenyloxetan-3-yl)piperidine-4-carbonyl]-4-piperidyl]methyl]pyrimidin-4-one]?
A: Ki (USP7): 63 nM; IC50 [1]: 50 nM

Q: How did the Ki (USP7) turn out when `Cc1ccc(-c2nc(C)c(C(=O)N3CC[C@@H](C(=O)N4CCC(O)(Cn5cnc(Oc6ccc(CNC(=O)OC(C)(C)C)cc6)c(N)c5=O)CC4)[C@H](c4ccccc4)C3)s2)cn1` [Example 223, tert-butyl N-[[4-[5-amino-1-[[4-hydroxy-1-[(3R,4R)-1-[4-methyl-2-(6-methyl-3-pyridyl)thiazole-5-carbonyl]-3-phenyl-piperidine-4-carbonyl]-4-piperidyl]methyl]-6-oxo-pyrimidin-4-yl]oxyphenyl]methyl]carbamate] was run?
A: 4.2 nM

Q: And the IC50 [1]?
A: 73.2 nM

Q: Which Ki (USP7) does the source give for `Nc1c(Oc2ccc(F)cc2)ncn(CC2(O)CCN(C(=O)[C@@H]3CCN(Cc4cnc(Br)s4)C[C@H]3c3ccccc3)CC2)c1=O` [Example 50, 5-amino-3-[[1-[(3R,4R)-1-[(2-bromothiazol-5-yl)methyl]-3-phenyl-piperidine-4-carbonyl]-4-hydroxy-4-piperidyl]methyl]-6-(4-fluorophenoxy)pyrimidin-4-one] here?
A: 7.89 nM

Q: What about the IC50 [1] of the same compound?
A: 6.17 nM

Q: For `Cc1cncc(C(=O)N2CC[C@@H](C(=O)N3CC[C@](O)(Cn4cnc(Oc5ccc(F)cc5)c(N)c4=O)C(F)(F)C3)[C@H](c3ccccc3)C2)c1` [Example 157, 5-amino-3-[[(4S)-3,3-difluoro-4-hydroxy-1-[(3R,4R)-1-(5-methylpyridine-3-carbonyl)-3-phenyl-piperidine-4-carbonyl]-4-piperidyl]methyl]-6-(4-fluorophenoxy)pyrimidin-4-one], which Ki (USP7) is on record?
A: 4.83 nM

Q: What about the IC50 [1] of the same compound?
A: 5.18 nM

Q: Which Ki (USP7) does the source give for `Cn1c(C(=O)N2CC[C@@H](C(=O)N3CCC(O)(Cn4cnc(Oc5ccc(F)cc5)c(N)c4=O)CC3)[C@H](c3ccccc3)C2)c(Cl)c2ccccc21` [Example 127, 5-amino-3-[[1-[(3R,4R)-1-(3-chloro-1-methyl-indole-2-carbonyl)-3-phenyl-piperidine-4-carbonyl]-4-hydroxy-4-piperidyl]methyl]-6-(4-fluorophenoxy)pyrimidin-4-one] here?
A: 5.93 nM

Q: And the IC50 [1]?
A: 20.4 nM

Q: `Nc1c(Oc2ccc(F)cc2)ncn(CC2(O)CCN(C(=O)[C@@H]3CCN(C(=O)c4cc(Cl)cc(Cl)c4)C[C@H]3c3ccccc3)CC2)c1=O` [Example 130] was tested. Which Ki (USP7) did it give?
A: 1.83 nM

Q: And the IC50 [1]?
A: 7.5 nM

Q: Which Ki (USP7) does the source give for `Nc1c(Oc2ccc(F)cc2)ncn(CC2(O)CCN(C(=O)[C@@H]3CCN(C4(c5ccccc5F)COC4)C[C@H]3c3ccccc3)CC2)c1=O` [Example 109] here?
A: 65 nM

Q: What about the IC50 [1] of the same compound?
A: 11 nM

Q: `Cc1nc(C2CCCN(C)C2)sc1C(=O)N1CC[C@@H](C(=O)N2CCC(O)(Cn3cnc(Oc4ccc(F)cc4)c(N)c3=O)CC2)[C@H](c2ccccc2)C1` (stereo partly drawn) [Example 199, 5-amino-6-(4-fluorophenoxy)-3-[[4-hydroxy-1-[(3R,4R)-1-[4-methyl-2-(1-methyl-3-piperidyl)thiazole-5′-carbonyl]-3-phenyl-piperidine-4-carbonyl]-4-piperidyl]methyl]pyrimidin-4-one] was tested. Which Ki (USP7) did it give?
A: 9.23 nM

Q: What about the IC50 [1] of the same compound?
A: 34.1 nM

Q: Which results are given for `CN1CCN(c2cccc(C(=O)N3CC[C@@H](C(=O)N4CCC(O)(Cn5cnc(Oc6ccc(F)cc6)c(N)c5=O)CC4)[C@H](c4ccccc4)C3)c2)CC1` [Example 56]?
A: Ki (USP7): 16 nM; IC50 [1]: 42 nM

Q: With `Cc1nc(-c2ccc(F)cc2)sc1C(=O)N1CC[C@@H](C(=O)N2CC[C@](O)(Cn3cnc(Oc4ccc(F)cc4)c(N)c3=O)C(F)(F)C2)[C@H](c2ccccc2)C1` [Example 44] as the compound, how does the Ki (USP7) read?
A: 18.1 nM

Q: What about the IC50 [1] of the same compound?
A: 7.4 nM

Q: Which Ki (USP7) does the source give for `Nc1c(Oc2ccc(F)cc2)ncn(CC2(O)CCN(C(=O)[C@@H]3CCN(C(=O)c4cccc5cnccc45)C[C@H]3c3ccccc3)CC2)c1=O` [Example 102, 5-amino-6-(4-fluorophenoxy)-3-({4-hydroxy-1-[(3R,4R)-1-(isoquinoline-5-carbonyl)-3-phenylpiperidine-4-carbonyl]piperidin-4-yl}methyl)pyrimidin-4(3H)-one] here?
A: 4.1 nM

Q: And the IC50 [1]?
A: 9.31 nM

Q: For `Cc1ccc(-c2nc(C)c(C(=O)N3CC[C@@H](C(=O)N4CCC(O)(Cn5cnc(Oc6ccc(Cl)cc6)c(N)c5=O)CC4)[C@H](c4ccccc4)C3)s2)cn1` [Example 22, 5-amino-6-(4-chlorophenoxy)-3-[(4-hydroxy-1-{(3R,4R)-1-[4-methyl-2-(6-methylpyridin-3-yl)-1,3-thiazole-5-carbonyl]-3-phenylpiperidine-4-carbonyl}piperidin-4-yl)methyl]pyrimidin-4(3H)-one], which Ki (USP7) is on record?
A: 3 nM

Q: And the IC50 [1]?
A: 4 nM

Q: Which results are given for `Cc1nccnc1CN1CC[C@@H](C(=O)N2CC[C@](O)(Cn3cnc(Oc4ccc(F)cc4)c(N)c3=O)C(F)(F)C2)[C@H](c2ccccc2)C1` [Example 211, 5-amino-3-[[(4S)-3,3-difluoro-4-hydroxy-1-[(3R,4R)-1-[(3-methylpyrazin-2-yl)methyl]-3-phenyl-piperidine-4-carbonyl]-4-piperidyl]methyl]-4(4-fluorophenoxy)pyrimidin-4-one]?
A: Ki (USP7): 27.7 nM; IC50 [1]: 24.9 nM

Q: For `Cc1nccc(CN2CC[C@@H](C(=O)N3CC[C@](O)(Cn4cnc(Oc5cccc(C(F)(F)F)c5)c(N)c4=O)C(F)(F)C3)[C@H](c3ccccc3)C2)n1` [Example 143, 5-amino-3-[[(4S)-3,3-difluoro-4-hydroxy-1-[(3R,4R)-1-[(2-methylpyrimidin-4-yl)methyl]-3-phenyl-piperidine-4-carbonyl]-4-piperidyl]methyl]-6-(3-(trifluoromethyl)phenoxy]pyrimidin-4-one], which Ki (USP7) is on record?
A: 42 nM

Q: What about the IC50 [1] of the same compound?
A: 217 nM

Q: `Nc1c(Oc2ccccc2)ncn(CC2(O)CCN(C(=O)[C@@H]3CCN(C4(c5ccccc5F)COC4)C[C@H]3c3ccccc3)CC2)c1=O` [Example 114] was tested. Which Ki (USP7) did it give?
A: 66 nM

Q: And the IC50 [1]?
A: 22 nM

Reference: patent US20210355106A1, “NEW AMINO-PYRIMIDONYL-PIPERIDINYL DERIVATIVES, A PROCESS FOR THEIR PREPARATION AND PHARMACEUTICAL COMPOSITIONS CONTAINING THEM” (LES LABORATOIRES SERVIER, priority 2018, published 2021)
